Assay results taken from patent US11708344B2, “Flavone derivatives for the treatment and prophylaxis of hepatitis B virus disease” (Hoffmann-La Roche Inc., priority 2018, dated 2023).
pIC50: −log10 of the molar value. Where two headings read alike, the source gives them in different places.

Columns and labels:
[1] = test system: HBeAg (surrogate marker for cccDNA) in HepDES19 cells; assay: Engineered HepDES19 primary screen assay (HBeAg ELISA); assay type: cell-based, HBV
Method in brief: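 HepDES19 cells were induced by Tet withdrawal for 8 days, then treated with half-log compound dilutions (1% DMSO final) for 5 days at 37 °C. HBeAg was measured by ELISA as the cccDNA surrogate, viability by CCK-8, and IC50 from a 4-parameter logistic fit.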

[2] = Human microsome stability assay; assay type: in vitro ADME; settings: human liver microsomes, 1 μM test compound, 0.5 mg/mL microsomal protein, 37° C., pH 7.4, 0-30 minutes
Method: The human microsomal stability assay is used for early assessment of metabolic stability of a test compound in human liver microsomes.
Human liver microsomes (Cat. NO.: 452117, Corning, USA; Cat. NO.: H2610, Xenotech, USA) were preincubated with test compound for 10 minutes at 37° C. in 100 mM potassium phosphate buffer, pH 7.4. The reactions were initiated by adding NADPH regenerating system. The final incubation mixtures contained 1 μM test compound, 0.5 mg/mL liver microsomal protein, 1 mM MgCl2, 1 mM NADP, 1 unit/mL isocitric dehydrogenase and 6 mM isocitric acid in 100 mM potassium phosphate buffer, pH 7.4. After incubation times of 0, 3, 6, 9, 15 and 30 minutes at 37° C., 300 μL of cold ACN (including internal standard) was added to 100 μL incubation mixture to terminate the reaction. Following precipitation and centrifugation, the amount of compound remaining in the samples was determined by LC-MS/MS. Controls of no NADPH regenerating system at zero and 30 minutes were also prepared and analyzed.

[3] = Hepatitis B virus, HepDES19, 120 h, read-out: IC50 (HBeAg level, HepDES19 primary screen assay), HepDES19 cells, 5 days compound incubation, HBeAg ELISA

| SMILES | pIC50 [1, 3] | Clearance of Human microsome [2] | pIC50 ([1]; read-out: IC50 (HBeAg level, HepDES19 primary screen assay), HepDES19 cells, 5 days compound incubation, HBeAg ELISA) |
| --- | --- | --- | --- |
| Cc1cc(-c2cc(=O)c3cccc(Cl)c3o2)c(O[C@H]2C[C@@H](C(=O)O)N(S(=O)(=O)c3ccccc3)C2)cc1Cl [Example B084, (2S,4S)-1-(benzenesulfonyl)-4-[5-chloro-2-(8-chloro-4-oxo-chromen-2-yl)-4-methyl-phenoxy]pyrrolidine-2-carboxylic acid] | 6.27 | 6.15 mL/min/kg |  |
| O=C(O)[C@@H]1C[C@H](Oc2cc(C(F)(F)F)ccc2-c2cc(=O)c3cccc(Cl)c3o2)CN1S(=O)(=O)c1ccccc1 [Example B080, (2S,4S)-1-(benzenesulfonyl)-4-[2-(8-chloro-4-oxo-chromen-2-yl)-5-(trifluoromethyl)phenoxy]pyrrolidine-2-carboxylic acid] | 5.92 | 6.15 mL/min/kg |  |
| O=c1cc(-c2ccc(N3CCCC3)cc2OCCO[C@H]2C[C@@H](C(=O)O)C2)oc2c(Cl)cccc12 [Example C068, cis-3-[2-[2-(8-chloro-4-oxo-chromen-2-yl)-5-pyrrolidin-1-yl-phenoxy]ethoxy]cyclobutanecarboxylic acid] | 5.32 | 6.15 mL/min/kg |  |
| Cc1c(-c2ccc(C(F)(F)F)cc2OCCC(=O)O)oc2c(Cl)cccc2c1=O [Example A034, 3-[2-(8-chloro-3-methyl-4-oxo-chromen-2-yl)-5-(trifluoromethyl)phenoxy]propanoic acid] | 4.87 | 6.15 mL/min/kg |  |
| O=C(O)COc1cc(C(F)(F)F)ccc1-c1cc(=O)c2cccc(Cl)c2o1 [Example A051, 2-[2-(8-chloro-4-oxo-chromen-2-yl)-5-(trifluoromethyl)phenoxy]acetic acid] | 5.62 | 6.15 mL/min/kg |  |
| CC(C)(Oc1cc(Br)ccc1-c1cc(=O)c2cccc(Cl)c2o1)C(=O)O [Example A070, 2-[5-bromo-2-(8-chloro-4-oxo-chromen-2-yl)phenoxy]-2-methyl-propanoic acid] | 6.20 | 6.15 mL/min/kg |  |
| O=C(O)C1CCC(OCCCOc2cc(Br)ccc2-c2cc(=O)c3cccc(Cl)c3o2)C1 (stereo not shown) [Example C105, 3-[3-[5-bromo-2-(8-chloro-4-oxo-chromen-2-yl)phenoxy]propoxy]cyclopentanecarboxylic acid] | 5.76 | 6.15 mL/min/kg |  |
| CCOc1cc(OCCO[C@H]2C[C@@H](C(=O)O)C2)c(-c2cc(=O)c3cccc(Cl)c3o2)cc1OCC [Example C088, Cis-3-[2-[2-(8-chloro-4-oxo-chromen-2-yl)-4,5-diethoxy-phenoxy]ethoxy]cyclobutanecarboxylic acid] | 4.99 | 6.15 mL/min/kg |  |
| O=c1cc(-c2cccc(F)c2OCCO[C@H]2C[C@H](C(=O)O)C2)oc2c(Cl)cccc12 [Example C037-B, Trans-3-[2-[2-(8-chloro-4-oxo-chromen-2-yl)-6-fluoro-phenoxy]ethoxy]cyclobutanecarboxylic acid] | 6.27 | 6.15 mL/min/kg |  |
| CCOc1ccc(-c2cc(=O)c3c(O)ccc(Cl)c3o2)c(O[C@H]2C[C@H](C(=O)O)C2)c1 [Example B039-B, Trans-3-[2-(8-chloro-5-hydroxy-4-oxo-chromen-2-yl)-5-ethoxy-phenoxy]cyclobutanecarboxylic acid] | 4.94 | 6.15 mL/min/kg |  |
| COc1c(-c2ccc(Br)cc2OCCO[C@H]2C[C@@H](C(=O)O)C2)oc2c(Cl)cccc2c1=O [Example C101, Cis-3-[2-[5-bromo-2-(8-chloro-3-methoxy-4-oxo-chromen-2-yl)phenoxy]ethoxy]cyclobutanecarboxylic acid] | 5.62 | 6.15 mL/min/kg |  |
| O=c1cc(-c2ccc(OC(F)(F)F)cc2OCCO[C@H]2C[C@@H](C(=O)O)C2)oc2c(Cl)cccc12 [Example C052-A, Cis-3-[2-[2-(8-chloro-4-oxo-chromen-2-yl)-5-(trifluoromethoxy)phenoxy]ethoxy]cyclobutanecarboxylic acid] | 5.22 | 9.08 mL/min/kg |  |
| O=c1cc(-c2ccccc2O[C@H]2C[C@H](C(=O)O)C2)oc2c(Br)cccc12 [Example B022-B, Trans-3-[2-(8-bromo-4-oxo-chromen-2-yl)phenoxy]cyclobutanecarboxylic acid] | 6.85 | 6.15 mL/min/kg |  |
| O=c1cc(-c2ccc(F)cc2OCCO[C@H]2C[C@@H](C(=O)O)C2)oc2c(Cl)cc(F)cc12 [Example C045-A, Cis-3-[2-[2-(8-chloro-6-fluoro-4-oxo-chromen-2-yl)-5-fluoro-phenoxy]ethoxy]cyclobutanecarboxylic acid] | 5.58 | 6.53 mL/min/kg |  |
| N[C@@H](COc1cc(C(F)(F)F)ccc1-c1cc(=O)c2cccc(Cl)c2o1)C(=O)O [Example A095, (2S)-2-amino-3-[2-(8-chloro-4-oxo-chromen-2-yl)-5-(trifluoromethyl)phenoxy]propanoic acid] | 5.48 | 9.59 mL/min/kg |  |
| O=C(O)[C@H]1CCCN1C(=O)COc1cc(C(F)(F)F)ccc1-c1cc(=O)c2cccc(Cl)c2o1 [Example A081, (2R)-1-[2-[2-(8-chloro-4-oxo-chromen-2-yl)-5-(trifluoromethyl)phenoxy]acetyl]pyrrolidine-2-carboxylic acid] |  | 6.15 mL/min/kg | 6.59 |
| O=c1cc(-c2ccc(Br)cc2OCCO[C@H]2C[C@@H](C(=O)O)C2)oc2c(Cl)cc(F)cc12 [Example C028, Cis-3-[2-[5-bromo-2-(8-chloro-6-fluoro-4-oxo-chromen-2-yl)phenoxy]ethoxy]cyclobutanecarboxylic acid] | 5.48 | 8.85 mL/min/kg |  |
| O=C(O)COCCCOc1cc(C(F)(F)F)ccc1-c1cc(=O)c2c(O)ccc(Cl)c2o1 [Example C100, 2-[3-[2-(8-chloro-5-hydroxy-4-oxo-chromen-2-yl)-5-(trifluoromethyl)phenoxy]propoxy]acetic acid] | 6.16 | 6.15 mL/min/kg |  |
| COc1cc(-c2cc(=O)c3cccc(Cl)c3o2)c(OCCO[C@H]2C[C@@H](C(=O)O)C2)cc1O [Example C076, Cis-3-[2-[2-(8-chloro-4-oxo-chromen-2-yl)-5-hydroxy-4-methoxy-phenoxy]ethoxy]cyclobutanecarboxylic acid] | 6.30 | 6.15 mL/min/kg |  |
| COc1ccc(OCCOC2CC(C(=O)O)C2)c(-c2cc(=O)c3cccc(Cl)c3o2)c1 (stereo not shown) [Example C060, 3-[2-[2-(8-chloro-4-oxo-chromen-2-yl)-4-methoxy-phenoxy]ethoxy]cyclobutanecarboxylic acid] | 5.01 | 6.15 mL/min/kg |  |
| O=c1cc(-c2cc3c(cc2OCCO[C@H]2C[C@@H](C(=O)O)C2)OCCO3)oc2c(Cl)cccc12 [Example C074, Cis-3-[2-[[7-(8-chloro-4-oxo-chromen-2-yl)-2,3-dihydro-1,4-benzodioxin-6-yl]oxy]ethoxy]cyclobutanecarboxylic acid] | 5.14 | 6.15 mL/min/kg |  |
| COc1cc(-c2cc(=O)c3cccc(Cl)c3o2)c(OCCO[C@H]2C[C@@H](C(=O)O)C2)cc1OCC1CC1 [Example C079, Cis-3-[2-[2-(8-chloro-4-oxo-chromen-2-yl)-5-(cyclopropylmethoxy)-4-methoxy-phenoxy]ethoxy]cyclobutanecarboxylic acid] | 5.26 | 6.15 mL/min/kg |  |
| CCOc1ccc(-c2cc(=O)c3cccc(Cl)c3o2)c(OCCO[C@H]2C[C@H](C(=O)O)C2)c1 [Example C035-B, Trans-3-[2-[2-(8-chloro-4-oxo-chromen-2-yl)-5-ethoxy-phenoxy]ethoxy]cyclobutanecarboxylic acid] | 4.75 | 9.78 mL/min/kg |  |
| CS(=O)(=O)NC(=O)[C@H]1C[C@@H](Oc2cc(C(F)(F)F)ccc2-c2cc(=O)c3cccc(Cl)c3o2)C1 [Example B048-A, Cis-3-[2-(8-chloro-4-oxo-chromen-2-yl)-5-(trifluoromethyl)phenoxy]-N-methylsulfonyl-cyclobutanecarboxamide] | 6.20 | 6.15 mL/min/kg |  |
| COc1cc(OC2CC(C(=O)O)C2)c(-c2cc(=O)c3c(O)ccc(Cl)c3o2)cc1OC (stereo not shown) [Example B042, 3-[2-(8-chloro-5-hydroxy-4-oxo-chromen-2-yl)-4,5-dimethoxy-phenoxy]cyclobutanecarboxylic acid] | 6.06 | 6.15 mL/min/kg |  |
| COc1cc(OCC(=O)O)c(-c2cc(=O)c3cccc(Cl)c3o2)cc1OC [Example A050, 2-[2-(8-chloro-4-oxo-chromen-2-yl)-4,5-dimethoxy-phenoxy]acetic acid] | 4.93 | 6.15 mL/min/kg |  |
